The record followed here is patent EP1530968A1, “Galangin components for the maintenance of bone health and/or treatment, alleviaton and/or prevention of bone disorder” (N.V. Nutricia, priority 2003, dated 2005).

Marks after values point to notes of the source that are not given here.

The test system of one data set is BMP receptor. Description: BRE-Luciferase reporter assay in transiently transfected KS483 cells. Format: cell-based, mouse. The note with it: 48h. The protocol: (§1) Mouse pre-osteoblastic cell line KS483 was maintained in phenol red-free α-MEM containing 10% non-charcoal-treated FBS and penicillin/streptomycin. Cells were seeded in 24-well plates at a density of 1.6x10^4 cells/well, and cultured in phenol red-free α-MEM supplemented with penicillin/streptomycin and 10% charcoal-treated FBS. After 24 hours, cells were transiently transfected with 0.25 µg luciferase reporter (see below) using a lipid-based FuGENE 6 transfection reagent according to the manufacturer's recommendations (Roche, Almere, Netherlands). Cells were transfected with luciferase reporter, i.e. either estrogen-receptor-responsive element (ERE-Luciferase) or BMP-receptor-responsive element (BRE-Luciferas), hereinafter jointly referred to as luciferase reporter. Transfection efficiency was measured by co-transfection of 25 ng of SV40-Renilla control vector.. The transfection medium was changed after 18 hours into new α-MEM, containing penicillin/streptomycin and 10% charcoal-treated FBS. […] After 48h, cells were washed twice with PBS and frozen at -20°C. Luciferase activity was determined by measuring bioluminescence. Luciferase activity was expressed as fold induction ± SEM, which was corrected for transfection efficiency using sv40-renilla luciferase activity. The measured luciferase activity is indicative for the extent of stimulation of the estrogen receptor or BMP receptor by the test component. Subsequently the ratio ERE stimulation/BRE stimulation (ERE/BRE ratio) was determined, which is indicative for the estrogenic effects of the test component (Table 3).
(Reporter assays use an easily measured gene product as a stand-in for the process of interest.)

Data set [1] has as its system KS483 (mouse pre-osteoblastic cell line). Description: Alkaline phosphatase (ALP) activity corrected for DNA in KS483 cells after 18 days exposure. Format: cell-based. The note with it: for ALP activity (mean ± SEM): 18 days, corrected for DNA, compared to control levels. The protocol:
(§2) KS483 (mouse pre-osteoblastic cell line, Leids Universitair […] Centrum, Leiden, The Netherlands) was maintained in phenol red-free alpha-minimum essential medium (α-MEM) containing 10% non-charcoal-treated fetal bovine serum (FBS) and penicillin/streptomycin. Cells were seeded in 12-well plates at a density of 4.5x10^4 cells/well, and cultured in phenol red-free α-MEM supplemented with penicillin/streptomycin and 10% charcoal-treated FBS. Cells were exposed to vehicle (0.01 wt.% DMSO) , β-estradiol as a positive control (10^-8 M and 10^-9 M in 0.01 wt.% DMSO) or galangin (10^-5 M, 10^-6 M and 10^-7 M in 0.01 wt.% DMSO) for 18 days. From day 4 ascorbic acid (50μg/ml), and from day 11 β-glycerolphosphate (5mM) were added to the culture medium. Every 3-4 days the medium was changed. At day 18, cells were washed twice with ice-cold phosphate buffered saline (PBS), frozen immediately, and stored at -20°C for further use. The cells were lysed in 400μl SSC (15 mM sodium citrate and 150 mM sodium chloride) with 0.01% sodium dodecyl sulfate (SDS). Alkaline phosphatase (ALP) activity was determined kinetically in 25μl aliquots by colorimetric determination of the produced p-nitrophenol at 405 nm, using 6 mmol/L p-nitrophenylphosphate as a substrate at a 37°C and pH 10.5. To correct the ALP activity determination for cell quantity, the DNA content was measured in 100μl aliquots, using Hoechst 33258 and calibrated against a DNA standard (0.5-10μg/mL salmon sperm DNA). Fluorescence was measured at a wavelength of 355-460 nm. Calcium deposition (see Table 2) was determined using the cresolphthalein complexon method according to Henri et al, 1974 (Clinical Biochemistry. Principles and Techniques. Harper and Row, New York, USA. All chemicals were obtained from Sigma-Aldrich (Zwijndrecht, The Netherlands). TABLE 1

For data set [2] the test system is unchanged. The data set can be described thus: Calcium deposition in KS483 cells (cresolphthalein complexon method). Format: cell-based. The note with it: for Fold increase of calcium (mean ± SEM): 18 days, compared to control levels. The protocol: as §2
The next data set has as its system estrogen receptor. Description: ERE-Luciferase reporter assay in transiently transfected KS483 cells. Format: cell-based, mouse. The note with it: 48h. The protocol:
as §1

The subject of data set [3] is estrogen receptor (ERE) and BMP receptor (BRE). The data set can be described thus: Ratio ERE stimulation/BRE stimulation (ERE/BRE ratio) in KS483 cells. The following applies: for ERE/BRE: ratio ERE stimulation/BRE stimulation. Format: cell-based, mouse. As for the experimental part: as §1
In a further data set the test system is SAMP6 mice. Description: Bone mineral density by DXA in senescence accelerated mice prone for osteoporosis (SAMP6). Type of data set: in vivo. The note with it: for BMD-LS change ( BMDLS) after 10 weeks of treatment / Bone mineral density of the lumbar spine (BMD-LS): female SAMP6 mice, E subcutaneous implant; for BMD-LS change ( BMDLS) after 10 weeks of treatment: age 22 to 32 weeks. From the text: (§3) Senescence accelerated mice prone for osteoporosis (SAMP6) and senescence accelerated resistant mice (SAMR) were obtained from Kyoto University, Kyoto, Japan. Mice were bred and kept under specific pathogen free conditions at the Center for small experimental animals in Wageningen. Procedures were approved by the external independent ethical committee for animal care and use (Zeist, The Netherlands). Female SAMP6 mice were randomized on the basis of body weight at the age 20 weeks and divided in 5 groups. […] The galangin was obtained from ICC, Sommerville, NJ, USA. The mice were treated from the age of 22 weeks to the age of 32 weeks. Animals were housed in pairs at 21°C with a 12-hour light/dark cycle in a room without male mice. Until the age of 22 weeks, animals were fed a complete rodent diet, free of flavonoids and isoflavones (RMH-B, Hope Farms, Woerden, The Netherlands). From 22 to 32 weeks of age, animals were fed diets composed according to the RDA of mice (Nutrient requirements of mice, National Academic press, Wahington, USA,1995) and demineralized water. Composition of all diets was identical, except for their galangin contents. All diets and water were supplied ad libitum. Food and water intake and body weight (BW) was registered weekly. Animals were checked daily for abnormal behavior and appearance. […] Implants were replaced after 6 weeks.
(§4) At the age of 22, 25, 28 and 32 weeks, bone mineral density (BMD) and body composition was determined with the aid of Dual energy X-ray absorptiometry (DXA) (Piximus, Lunar Corp, Madison, WI, USA) using the total body mode. Mice were anaesthetized with halothane and front and hind legs were extended. Bone mineral density of the lumbar spine (BMDLS) and the femur (BMDF) were determined within pre-defined regions of interest. Total body fat percentage was determined using the total body mode.

Data set [4] in a line: Body weight, fat percentage, food and water intake and uterus weight in SAMP6 mice. Format: in vivo.
Source text: as §3, §4

The mark [5] stands for this setting: age 22 weeks (before start of the intervention), galangin 0.4 mg per 100 g feed.
The mark [6] stands for this setting: age 25 weeks, treated from 22 weeks, galangin 0.4 mg per 100 g feed.
Setting [7] is: age 28 weeks, treated from 22 weeks, galangin 0.4 mg per 100 g feed.
Setting [8] is: age 32 weeks, treated from 22 weeks, galangin 0.4 mg per 100 g feed.
Setting [9] is: from 25 weeks of age onwards, subcutaneous implant, intact SAMP6-mice.
[10] abbreviates: compared with control group, SAMP6 mice, galangin throughout the study, E from 25 weeks of age onwards.

As for `O=c1c(O)c(-c2ccc(O)cc2)oc2cc(O)cc(O)c12` [K, kaemferol], the BRE is given as 2.4 fold induction in the data set on BMP receptor (10^-5M), 1.4 fold induction with BMP receptor (10^-6M) and 1.1 fold induction with BMP receptor (10^-7M).
Take `O=c1c(O)c(-c2ccccc2)oc2cc(O)cc(O)c12` [Gal, 3,5,7-trihydroxyflavone]: the “ALP activity (mean ± SEM)” value is given as 3.7 ± 0.152^a fold induction in data set [1] (10^-5M), 1.4 ± 0.055^a fold induction in data set [1] (10^-6M) and 1.1 ± 0.071 fold induction in data set [1] (10^-7M). Further, the ALP activity result in data set [1] (result in words) is on record as “significantly increased”. Moreover, the results for the “Fold increase of calcium (mean ± SEM)” value in data set [2] (10^-5M), in data set [2] (10^-6M) and in data set [2] (10^-7M) were 2.3 ± 0.160^a fold induction, 1.2 ± 0.132 fold induction and 1.3 ± 0.038 fold induction, respectively. In addition, the Calcium deposition entry in data set [2] (after treatment, result in words) was “significantly increased”. Further, the ERE with estrogen receptor (10^-5M) is listed as 3.8 fold induction; in the data set with estrogen receptor (10^-6M), 1.0 fold induction; with estrogen receptor (10^-7M), 0.9 fold induction. Also, the BRE with BMP receptor (10^-5M) was 2.0 fold induction; in the data set on BMP receptor (10^-6M), 0.9 fold induction; in the data set with BMP receptor (10^-7M), 0.9 fold induction. Also, the ERE/BRE in data set [3] (10^-5M) turned out to be 2.0; in data set [3] (10^-6M), 1.2; in data set [3] (10^-7M) it was 1.1. In data set [3] (galangin ratio as share of the ratio of kaempherol and quercitin), the “ratio ERE/BRE relative to kaempherol and quercitin” value is listed as “less than 50%”. The ERE/BRE ratio result in data set [3] (result in words, galangin as compared to kaempherol and quercetin) was “low”. The “loss of BMD-LS during the 10-week intervention period compared with controls” value with SAMP6 mice (0.04 mg galangin/100 g food (so in the source), SAMP6 mice) was “significantly lower”. Moreover, in the data set on SAMP6 mice (BMD-LS change after 10 weeks of treatment, galangin 0.4 mg per 100 g feed, SAMP6 mice), the “% inhibition compared to SAMPC” value turned out to be 40%. The “BMD-LS compared with controls” value in the data set with SAMP6 mice (at 32 weeks, 0.4 mg galangin/100 g feed, SAMP6 mice) was “significantly higher”. Further, in the data set with SAMP6 mice (galangin 0.4 mg per 100 g feed), the “BMD-LS change ( BMDLS) after 10 weeks of treatment” value is reported as -14.1 ^a. The “Bone mineral density of the lumbar spine (BMD-LS)” value in the data set with SAMP6 mice (setting [5]) is 0.0691 g/cm^2; in the data set with SAMP6 mice (setting [6]), 0.0658 g/cm^2; with SAMP6 mice (setting [7]), 0.0621 g/cm^2; in the data set with SAMP6 mice (setting [8]), 0.0601 ^a g/cm^2. In data set [4] (mouse, in vivo), the fat percentage result is on record as “No statistical differences”. The “food and water intake” value in data set [4] (mouse, in vivo) was “No statistical differences”.
For the compound `O=c1c(O)c(-c2ccc(O)c(O)c2)oc2cc(O)cc(O)c12` [Q, quercetin], the ERE is recorded as 7.9 fold induction in the data set with estrogen receptor (10^-5M), 1.5 fold induction in the data set on estrogen receptor (10^-6M) and 1.4 fold induction with estrogen receptor (10^-7M). Also, the values for the BRE with BMP receptor (10^-5M), in the data set on BMP receptor (10^-6M) and in the data set with BMP receptor (10^-7M) were 1.6 fold induction, 1.0 fold induction and 0.9 fold induction, respectively. Also, the results for the ERE/BRE in data set [3] (10^-5M), in data set [3] (10^-6M) and in data set [3] (10^-7M) were 5.0, 1.6 and 1.6, respectively.
With `C[C@]12CC[C@@H]3c4ccc(O)cc4CC[C@H]3[C@@H]1CC[C@@H]2O` [β-E, 17 β-estradiol], the “ALP activity (mean ± SEM)” value in data set [1] (10^-8M) is 2.6 ± 0.129^a fold induction; in data set [1] (10^-9M) it was 2.5 ± 0.184^a fold induction. The values for the ERE in the data set with estrogen receptor (10^-8M), in the data set on estrogen receptor (10^-9M) and with estrogen receptor (10^-10M) were 9.0 fold induction, 15.8 fold induction and 20.2 fold induction, respectively. Besides, the figures for the BRE with BMP receptor (10^-8M), in the data set on BMP receptor (10^-9M) and in the data set on BMP receptor (10^-10M) were 1.0 fold induction, 1.6 fold induction and 1.0 fold induction, respectively. For the same compound, the ERE/BRE in data set [3] (10^-8M) is 8.6; in data set [3] (10^-10M), 19.4. Also, the “BMD-LS change ( BMDLS) after 10 weeks of treatment” value in the data set on SAMP6 mice (galangin 0.4 mg per 100 g feed) is “+23.4 ^a”. Besides, the “Bone mineral density of the lumbar spine (BMD-LS)” value with SAMP6 mice (setting [5]) is on record as 0.0700 g/cm^2; in the data set with SAMP6 mice (setting [6]) it was 0.0774 g/cm^2; with SAMP6 mice (setting [7]), 0.08315 g/cm^2; in the data set with SAMP6 mice (setting [8]), 0.0868 ^a g/cm^2. In addition, the BMD-F result in the data set with SAMP6 mice (setting [9]) is “significantly higher”. In the data set with SAMP6 mice (setting [9]), the BMD-LS entry was “significantly higher”. Further, the Uterus weight result in data set [4] (at 32 weeks of age, compared with control group, SAMP6 mice) was “significantly higher”. Also, the body weight entry in data set [4] (setting [10]) is “significantly lower”. Besides, in data set [4] (setting [10]), the fat percentage result is listed as “significantly lower”. For the same compound, in data set [4] (setting [10]), the “food and water intake” value was “significantly lower”.
